From ChEMBL document CHEMBL5223182, “Inhibition of HIV-1 Protease by a Boronic Acid with High Oxidative Stability” (ACS Med Chem Lett, 2023)

Key:
[1] = Oxidative stability in sodium phosphate buffer assessed as relative rate constant; format: physicochemical
[2] = molecular target: T1, Human immunodeficiency virus type 1 protease (Human immunodeficiency virus 1, UniProt Q72874); experiment: Inhibition of HIV-1 protease by fluorescence assay
[3] = Oxidative stability in sodium phosphate buffer assessed as observed rate constant; format: physicochemical
[4] = Oxidative stability of compound in PBS by UV visible spectrophotometer analysis; format: physicochemical; settings: buffer
Protease = Protease (Human immunodeficiency virus 1, UniProt Q9YQ12, D30N); experiment: Inhibition of HIV-1 protease D30N mutant
[5] = molecular target: T1, Human immunodeficiency virus type 1 protease; experiment: Inhibition of HIV-1 protease

Sequence of Protease (Q9YQ12 entry or part of it D30N): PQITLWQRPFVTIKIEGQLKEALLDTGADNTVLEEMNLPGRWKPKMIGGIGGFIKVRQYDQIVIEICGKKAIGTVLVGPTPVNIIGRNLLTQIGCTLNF

| Ki [2] [pM] | Compound | K [1] | K [3] [M⁻¹ s⁻¹] | K [4] [M⁻¹ s⁻¹] | Ki (Protease) [pM] | Ki [5] [pM] |
| --- | --- | --- | --- | --- | --- | --- |
| 0.5 | CC(C)CN(C[C@@H](O)[C@H](Cc1ccccc1)NC(=O)O[C@H]1CO[C@H]2OCC[C@H]21)S(=O)(=O)c1ccc(B(O)O)cc1 | 1 | 0.12 | 2.4 |  |  |
|  | CC(C)CN(C[C@@H](O)[C@H](Cc1ccccc1)NC(=O)O[C@H]1CO[C@H]2OCC[C@H]21)S(=O)(=O)c1ccc2c(c1)C(=O)O[B-]2(O)O | 0.021 | 0.0026 | 0.00015 | 7 | 10 |
